From patent US11007273B2, “Prochelators as targeted prodrugs for prostate cancer and methods of making and using same” (Duke University, priority 2017, dated 2021)
“Also recorded” adds a separate entry of the source. Where two headings read alike, the source gives them in different places. Blank lines part the entries; values can stand above or below the compound they belong to. Non-standard residues stand in square brackets, D forms with d. Residues, ends and D or L forms follow the SMILES beside them. *: point of attachment. X1 = CCN(CC)C(=S)SCc1ccc(N*)cc1

What was measured:
GGT [1] = biological target: T1, GGT (Homo sapiens, UniProt P19440); experiment: Competition experiments vs. γE-pNA for GGT; type: biochemical; conditions: vs E-pNA; PBS, pH 7.4, 1 mM GlyGly
T1 sequence (P19440 whole entry, species assumed): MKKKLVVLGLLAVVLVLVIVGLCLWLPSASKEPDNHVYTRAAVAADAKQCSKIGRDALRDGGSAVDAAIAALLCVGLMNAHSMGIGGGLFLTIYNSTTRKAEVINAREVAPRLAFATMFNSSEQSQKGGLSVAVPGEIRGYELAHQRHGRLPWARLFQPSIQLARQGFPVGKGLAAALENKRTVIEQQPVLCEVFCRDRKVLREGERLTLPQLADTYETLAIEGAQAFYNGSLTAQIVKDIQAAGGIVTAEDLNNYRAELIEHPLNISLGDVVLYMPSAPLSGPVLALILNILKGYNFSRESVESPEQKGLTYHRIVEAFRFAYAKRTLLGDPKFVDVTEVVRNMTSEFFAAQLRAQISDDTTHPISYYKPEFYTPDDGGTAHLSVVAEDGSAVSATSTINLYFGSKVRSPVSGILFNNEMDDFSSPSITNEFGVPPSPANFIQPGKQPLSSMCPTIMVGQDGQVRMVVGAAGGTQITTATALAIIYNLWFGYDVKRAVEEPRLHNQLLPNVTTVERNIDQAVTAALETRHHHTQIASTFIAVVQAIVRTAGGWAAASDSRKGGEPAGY
Procedure: Competition experiments vs. γE-pNA for GGT: To perform the inhibition study, a serial dilution of γE-pNA was performed ranging from 1 mM to 3 μM in PBS with 1 mM Gly-Gly (dilution factor=0.5; pH 7.4; 10% DMSO; 100 μL) using a clear, flat bottom 96 well plate. GGT binding molecules, as indicated, were added to separate sets of triplicate wells to reach a final concentration of 10 and 100 μM. Before the addition of enzyme, the plate was cooled to 4° C. for 15 min. To initiate the assay, 10 μL of 50 U/L GGT was added to each well and an initial absorbance scan was performed. Subsequent scans were performed every 10 min for ˜2 h. In between each scan, the plates were stored at 37° C. in a humidified incubator to reduce solvent evaporation. The experiment was repeated in triplicate.
To probe the reactivity of Glu-DTC in comparison to the enzyme's natural substrate GSH, competition experiments were conducted against the colorimetric substrate L-glutamic acid γ-(p-nitroanilide) [E-pNA]. The colorimetric assay involves monitoring p-nitroaniline release by absorbance at 405 nm upon reaction of the probe substrate E-pNA with GGT in the presence of an inhibiting substrate, either Glu-DTC (FIG. 15A) or GSH (FIG. 15C).

GGT [2] = biological target: T1, GGT; experiment: GGT enzyme cleavage assay (LC/MS); type: biochemical; conditions: 100 μM, 100 U/L GGT, 15 min, then 500 μM CuSO4
Procedure: GGT Enzyme cleavage assay: In order to detect DTC liberated from prodrug by reactivity with GGT, 100 μM Glu-DTC was exposed to 100 U/L GGT in the presence of 1 mM Gly-Gly (PBS; pH 7.4; 37° C.). After 15 min, 500 μM CuSO4 was added to the vial, mixed well, then analyzed by LC/MS using an H2O: acetonitrile gradient for 25 min starting with 95% H2O:acetonitrile to 5% H2O:acetonitrile. A peak eluting at 12 min was observed corresponding to Glu-DTC as detected by MS, while a second peak eluting at 22 min corresponded to Cu(DTC)2 as detected by MS.

GGT [3] = biological target: T1, GGT; experiment: Copper-calcein competition assay with GGT exposure; type: biochemical; conditions: 20 U/L GGT, 1 mM Gly-Gly, 12.5 μM, 37° C.
Procedure: Plots at different timepoint of GGT exposure in accordance with one embodiment of the present disclosure. […] Solutions contained 1 μM CuSO4, 1 μM calcein, 20 U/L of GGT enzyme, and 12.5 μM of either Glu-DTC (grey) or DTC (black) in PBS buffer pH 7.4 with 1 mM Gly-Gly; 37° C.
Calcein assay: In a 96-well plate 12.5 μM prodrug or DTC chelator was dissolved in PBS (pH=7.4) from a 20 mM stock solution in DMSO. To each well Calcein (Cu) was added to reach a final concentration of 1 μM. The fluorescence of calcein was measured using a plate reader with λex=485 nm and λem=535 nm. After measuring the initial fluorescence, Gly-Gly and GGT were added in each well to make up to a final concentration of 1 mM and 20 U/L respectively. The plate was scanned at various time points to observe prodrug turnover via the development of a fluorescent signal caused by Cu removal from Calcein. The fluorescence emission was plotted as percentage with fluorescence of 1 μM Calcein in PBS as 100% and 1 μM (Cu)Calcein as 0%. The experiment was repeated in triplicate and standard deviations are represented as error bars.

22Rv1 cells [4] = experiment: Glu-DTC cleavage in cell culture, 22Rv1; type: cell-based, human; conditions: 100 μM
Procedure: (§1) Glu-DTC cleavage in cell culture: 22Rv1 and PWR-1E cell lines were plated into a 24 well plate (2×10^5 cells/well) with their respective growth media and allowed to adhere overnight. The following day, the growth media was removed, and each cell line was washed with PBS. 2 mL of 100 μM Glu-DTC in serum free media along with 1 mM Gly-Gly was added to the cells. One batch of 22Rv1 were treated with 2 mM Acivicin, a GGT inhibitor, along with Glu-DTC and Gly-Gly. 100 μL aliquots were taken at various time points over 72 h. Each aliquot was analyzed via HPLC to generate chromatographs of the progress of Glu-DTC digestion. Caffeine was added as reference and the ratio of Glu-DTC peak area with respect to caffeine was plotted as percentage considering initial Glu-DTC level as 100%.

PWR-1E cells [5] = experiment: cells; type: cell-based, human
Procedure: (§2) Antiproliferation assay: To determine the amount of Cu(II) required for cell studies a checkerboard assay was performed by varying the prodrug or drug concentration and Cu(II) concentration. 22RV1, LNCaP, PC3, MCF-7, and PWR-1E (5,000 cells/well) were seeded in 96-well plates with regular media (22Rv1, LNCaP, and PC-3 in RPMI with 10% FBS; MCF-7 in DMEM with 10% FBS; PWR-1E in Keratinocyte-SFM) and let adhere for 24 h. The following day, the media was replaced with serum free media and cells were treated as indicated for an additional 24 h or 72 h. Cell proliferation was measured using a fluorometric resazurin reduction method. 20 μL of 700 μM Resazurin (Sigma R7017) was added in each well and incubated at 37° C. for 2 h. Fluorescence at 580 nm was measured by exciting at 555 nm with a plate reader. Each experiment was performed in triplicate, and the experiments were repeated three times. Viability vs drug concentration plot from a representative experiment are shown with standard deviation from the experiment as error bar. The error bar in IC50 values represents standard deviation from three different experiments.

MCF-7 cells = experiment: cells; type: cell-based, human
Procedure: as §2

LNCaP cells = experiment: cells; type: cell-based, human
Procedure: as §2

PC-3 cells = experiment: cells; type: cell-based, human
Procedure: as §2

22Rv1 cells [6] = experiment: cells; type: cell-based, human
Procedure: as §2

PWR-1E cells [7] = experiment: Glu-DTC cleavage in cell culture, PWR-1E; type: cell-based, human; conditions: GGT(−), 100 μM, 24 h
Procedure: as §1

[8] = type: in vitro ADME, human
Procedure: Conditioned media from prostate cancer cell line, LNCaP, was used to test the cleavage of prodrug. […] Since DTC is not observed in the UV or mass spectrometer, Cu(II) was added before recording mass spectra to visualize the release of DTC. Cu(DTC)2 complex was observed indicating the release of DTC. PSA-DTC was completely cleaved within 4 h.

aminopeptidases = experiment: Further treatment with aminopeptidases (DTC release); type: biochemical; conditions: after PSA treatment
Procedure: (§3) It is hypothesized that the […] enzyme cleaves the peptide bond between Tyr and Ser. The cleaved products are shown in Scheme 2. When treated with 20 μg/mL of PSA, PSA-DTC was completely converted to products within 6 h (FIG. 6A).

PSA enzyme = PSA enzyme (Homo sapiens, UniProt P07288); experiment: In vitro cleavage by PSA enzyme (LC trace); type: biochemical; conditions: 20 μg/mL of PSA
Sequence of PSA enzyme (P07288 25-261): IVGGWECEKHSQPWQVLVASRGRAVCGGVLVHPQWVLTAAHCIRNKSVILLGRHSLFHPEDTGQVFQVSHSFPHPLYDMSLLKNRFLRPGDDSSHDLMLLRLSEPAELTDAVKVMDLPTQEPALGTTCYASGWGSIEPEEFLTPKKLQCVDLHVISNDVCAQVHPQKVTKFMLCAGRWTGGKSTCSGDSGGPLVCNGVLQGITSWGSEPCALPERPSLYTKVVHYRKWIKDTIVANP
Procedure: as §3

Ki (GGT [1]): 23000 ± 5000 nM | stability time with GGT inhibitor Acivicin (22Rv1 cells [4]; 22Rv1, co-exposure with Acivicin): at least 24 h | level of intact Glu-DTC in supernatant with Acivicin (22Rv1 cells [4]; 22Rv1 treated with GGT-inhibitor Acivicin, 24 h): unchanged | IC50 (PWR-1E cells [5]; Homo sapiens, PWR-1E, 24 h, PWR-1E, 24 h, 1 μM CuSO4, read-out: IC50 with 1 μM CuSO4): > 15000 nM | IC50 (PWR-1E cells [5]; Homo sapiens, PWR-1E, 72 h, PWR-1E, 72 h, 1 μM CuSO4, read-out: IC50 with 1 μM CuSO4): 1500 nM | IC50 (PWR-1E cells [5]; PWR-1E, 24 h, 1 μM CuSO4, read-out: IC50 with 1 μM CuSO4): 16800 ± 4400 nM | IC50 (PWR-1E cells [5]; PWR-1E, 72 h, 1 μM CuSO4, read-out: IC50 with 1 μM CuSO4): 1550 ± 20 nM | IC50 (MCF-7 cells; Homo sapiens, MCF7, MCF-7, 24 h, 1 μM CuSO4, read-out: IC50 with 1 μM CuSO4): 1700 ± 100 nM | IC50 (MCF-7 cells; Homo sapiens, MCF7, MCF-7, 72 h, 1 μM CuSO4, read-out: IC50 with 1 μM CuSO4): 480 ± 40 nM | IC50 (LNCaP cells; Homo sapiens, LNCaP, 24 h, LNCaP, 24 h, 1 μM CuSO4, read-out: IC50): 800 nM | IC50 (LNCaP cells; Homo sapiens, LNCaP, 24 h, LNCaP, 24 h, 1 μM CuSO4, read-out: IC50 with 1 μM CuSO4): 620 ± 40 nM | IC50 (LNCaP cells; Homo sapiens, LNCaP, 24 h, initial experiments, LNCaP, after 24 h, 1 μM supplemental Cu(II), read-out: IC50): 760 nM | IC50 (LNCaP cells; Homo sapiens, LNCaP, 72 h, LNCaP, 72 h, 1 μM CuSO4, read-out: IC50 with 1 μM CuSO4): 500 ± 90 nM | IC50 (PC-3 cells; Homo sapiens, PC-3, initial experiments, PC3, 24 h, above maximum tested 10 μM, obtained by extrapolation of the curve (FIG. 10A), read-out: IC50): ~12000 nM | IC50 (PC-3 cells; Homo sapiens, PC-3, 24 h, 1 μM CuSO4, read-out: IC50 with 1 μM CuSO4): 5500 ± 100 nM | IC50 (PC-3 cells; Homo sapiens, PC-3, 72 h, 1 μM CuSO4, read-out: IC50 with 1 μM CuSO4): 1320 ± 250 nM | IC50 (22Rv1 cells [6]; Homo sapiens, 22Rv1, 24 h, 1 μM CuSO4, read-out: IC50): 800 nM | IC50 (22Rv1 cells [6]; Homo sapiens, 22Rv1, 24 h, 1 μM CuSO4, read-out: IC50 with 1 μM CuSO4): 760 ± 90 nM | IC50 (22Rv1 cells [6]; Homo sapiens, 22Rv1, 72 h, 1 μM CuSO4, read-out: IC50 with 1 μM CuSO4): 290 ± 110 nM | IC50 (22Rv1 cells [6]; Homo sapiens, 22Rv1, 72 h continuous exposure, 1 μM CuSO4, read-out: IC50): 300 nM | level of intact Glu-DTC in supernatant (PWR-1E cells [7]): unchanged
SMILES: CCN(CC)C(=S)SCc1ccc(NC(=O)CC[C@H](N)C(=O)O)cc1 [Glu-DTC]
prodrug cleavage and Cu(DTC)2 formation by LC/MS (GGT [2]): decrease in Glu-DTC peak and formation of Cu(DTC)2 | calcein fluorescence after exposure to GGT enzyme (GGT [3]): recovery of calcein fluorescence over time | level of intact Glu-DTC in supernatant (22Rv1 cells [4]; 22Rv1, 24 h, 1 mM GlyGly): significant loss of detectable Glu-DTC; also recorded: depletion was observed | toxicity (PWR-1E cells [5]; initial experiments, PWR-1E, within the tested concentration of 10 μM): did not show much toxicity | Cu(II) added to the growth medium required for antiproliferative activity (22Rv1 cells [6]; checkerboard pilot studies in 22Rv1 cells): 300 nM

IC50 (PWR-1E cells [5]): 500 nM | IC50 (MCF-7 cells): 330 nM | IC50 (LNCaP cells): 390 nM | IC50 (PC-3 cells): 490 nM | IC50 (22Rv1 cells [6]): 770 nM
SMILES: CCN(CC)C(=S)SCc1ccc(NC(=O)[C@@H](CC(C)C)NC(=O)[C@@H](CO)NC(=O)[C@@H](Cc2ccc(O)cc2)NC(=O)[C@@H](Cc2ccc(O)cc2)NC(=O)[C@@H](CO)NC(=O)[C@@H](CO)NC(=O)[C@H](N)CCCNC(=N)N)cc1 [PSA-DTC] (H-[dR][dS][dS][dY][dY][dS][dL]-X1)
time to complete cleavage [8]: ≤ 4 h | release of DTC on treatment with aminopeptidases (aminopeptidases): led to the release of DTC | antiproliferative activity in checker board assay with Cu (LNCaP cells; LNCaP, varying Cu and prodrug, within 24 h (dPSA-DTC: even after 72 h)): showed antiproliferative activity in the presence of Cu | time to complete conversion to products (PSA enzyme): ≤ 6 h
